In US12185719B2, “Mixture of a folcysteine-based biostimulant and an agrotoxic substance of interest resulting in a quantitatively, qualitatively and time-related result-potentiating action as observed in an agricultural crop of a plant of interest” (priority 2017, dated 2025):

Assays:
Tetranychus urticae = experiment: Laboratory test of mite control (Unesp, Jaboticabal); format: in vivo; settings: dose 30 g-mL/100 L, lab conditions; for Mite control (%) 1 DFA: 1 day following application; for Mite control (%) 2 DFA: 2 days following application; for Mite control (%) 3 DFA: 3 days following application; for Mite control (%) 4 DFA: 4 days following application; for Mite control (%) 7 DFA: 7 days following application
From the text: Application of miticide propargite: application to control mites in lab conditions, performed by Unesp in Jaboticabal, SP. Quantitative (control) results are described in table 3. Assessments were made of the plant treated with miticide propargite against the witness plant (untreated).
Application of miticide abamectin: application to control mites in lab conditions, performed by Unesp in Jaboticabal, SP. Quantitative (control) results are described in Chart 4. Assessments were made of the plant treated with miticide abamectin against the witness plant (untreated).
Example 5: Laboratory Test Performed by Unesp in Jaboticabal, SP to Measure Mite Control, Specifically Control of Tetranychus Urticae with 4 Repetitions and 4 Treatments
The first (treatment 1) is a sample of the plant with no treatment (Witness). The second treatment is a sample treated with Folcysteine alone (treatment 2). The third treatment is a plant sample treated only with the agrotoxic of interest, miticide AI4 (based on propargite), identified as treatment 3, and the fourth treatment used a folcysteine-based biostimulant and an agrotoxic of interest, miticide AI4 (propargite-based), identified as treatment 4, applied under laboratory conditions. See the results in the following table:
Example 6: Laboratory Test Performed by Unesp in Jaboticabal, SP to Measure Mite Control, Specifically Control of Tetranychus Urticae with 4 Repetitions and 4 Treatments
The first (treatment 1) is a sample of the plant with no treatment (Witness). The second is a sample treated with Folcysteine alone (treatment 2). The third treatment is a plant sample treated only with the agrotoxic of interest, miticide AI5, and the fourth treatment uses a blend of folcysteine-based biostimulant and an agrotoxic of interest, miticide AI5 (abamectin-based), identified as treatment 4, applied under laboratory conditions.

corn = format: in vivo; settings: dose 1.50 kg-l/ha

Row | Molecule | Mite control (%) 1 DFA (Tetranychus urticae) [%] | Mite control (%) 2 DFA (Tetranychus urticae) [%] | Mite control (%) 3 DFA (Tetranychus urticae) [%] | Mite control (%) 4 DFA (Tetranychus urticae) [%] | Mite control (%) 7 DFA (Tetranychus urticae) [%] | Productivity Index (corn; herbicide alone = 100) | Weight of 1,000 grains Index (corn; herbicide alone = 100) | Productivity (corn; spraying volume 300 l/ha) [b kg/ha] | Weight of 1,000 grains (corn; spraying volume 300 l/ha) [a g]
1 | C#CCOS(=O)OC1CCCCC1Oc1ccc(C(C)(C)C)cc1 (centres unmarked) [Propargite, propargite] | 59 | 63 | 70 | 77 | 98 | – | – | – | –
2 | CP(=O)(O)CCC(N)C(=O)O.N (centres unmarked) [ammonium glufosinate] | – | – | – | – | – | 100 | 100 | 7.142 | 25.89
3 | abamectin | 20 | 20 | 20 | 45 | 62 | – | – | – | –
